According to the NIST ThermoML archive (doi:10.1016/j.jct.2012.12.015):
Numbers after ± are expanded uncertainties.

Columns and labels:
[1] = Crystal; visual observation
[2] = xn = mol fraction of the nth substance listed; conditions: 101 kPa, Liquid, Pulse-echo method, x2 = 0.5

Structure (SMILES)	Normal melting temperature [1] [°C]	speed of sound ([2]; 1065 K) [m/s]	speed of sound ([2]; 1071 K) [m/s]	speed of sound ([2]; 1075 K) [m/s]
[Ag][I] [silver iodide]	559 ± 1	–	–	–
[Ag][I] [silver iodide] + [Cl-].[Na+]	–	1360 ± 8	1357 ± 8	1354 ± 8
[Cl-].[Na+] [sodium chloride]	801 ± 1	–	–	–
